Measured values published in ChEMBL document CHEMBL1821589, “Synthesis and structure-activity relationship of 1- and 2-substituted-1,2,3-triazole letrozole-based analogues as aromatase inhibitors” (Eur J Med Chem, 2011).
Active and inactive are the calls of the source. No cut-off for these calls is given here.

target: T1, Aromatase (Homo sapiens, UniProt P11511); assay: Inhibition of aromatase using 7-methoxy-4-trifluoromethyl coumarin as substrate after 30 mins by fluorescence-based colorimetric analysis; settings: not given
T1 sequence (P11511 whole entry): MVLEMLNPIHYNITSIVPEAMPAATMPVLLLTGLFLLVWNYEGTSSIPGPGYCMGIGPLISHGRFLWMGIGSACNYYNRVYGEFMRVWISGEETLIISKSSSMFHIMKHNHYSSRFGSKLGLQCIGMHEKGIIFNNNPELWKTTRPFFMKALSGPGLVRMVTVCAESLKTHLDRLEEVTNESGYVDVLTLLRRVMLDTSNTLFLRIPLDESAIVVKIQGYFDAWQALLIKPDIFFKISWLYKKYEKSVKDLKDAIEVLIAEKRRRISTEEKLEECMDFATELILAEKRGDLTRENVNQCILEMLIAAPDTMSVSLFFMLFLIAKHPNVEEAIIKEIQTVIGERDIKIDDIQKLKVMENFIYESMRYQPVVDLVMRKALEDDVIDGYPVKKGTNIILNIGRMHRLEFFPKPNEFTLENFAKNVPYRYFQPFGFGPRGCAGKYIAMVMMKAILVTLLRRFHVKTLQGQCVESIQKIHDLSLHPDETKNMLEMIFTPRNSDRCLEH

Compound | IC50
c1ccc(C(c2ccccc2)n2nccn2)cc1 | 12 µM
c1ccc(Cn2cncn2)cc1 | 4.11 µM
N#Cc1ccc(OCc2cn(C(c3ccc(C#N)cc3)c3ccc(C#N)cc3)nn2)cc1 | 4.64 µM
N#Cc1ccc(C(c2ccc(C#N)cc2)n2nccn2)cc1 | 80 µM
CCCCCCc1cn(C(c2ccc(C#N)cc2)c2ccc(C#N)cc2)nn1 | 5.07 µM
N#Cc1ccc(C(c2ccc(C#N)cc2)n2cc(COc3ccc(Cl)cc3)nn2)cc1 | 16.1 µM
N#Cc1ccc(C(c2ccc(C#N)cc2)n2cc(-c3ccccc3)nn2)cc1 | 10.3 µM
c1ccc(Cn2ccnc2)cc1 [BENZYLIMIDAZOLE] | 0.15 µM
N#Cc1ccc(Cn2cc(C3CCCCC3)nn2)cc1 | 10.7 µM
N#Cc1ccc(Cn2cncn2)cc1 | 0.15 µM
c1ccc(Cn2cc(C3CCCCC3)nn2)cc1 | 7.98 µM
CCCCCCCCCCc1cn(C(c2ccc(C#N)cc2)c2ccc(C#N)cc2)nn1 | 16 µM
c1ccc(-c2cn(C(c3ccccc3)c3ccccc3)nn2)cc1 | 12.9 µM
COc1ccc(OCc2cn(C(c3ccc(C#N)cc3)c3ccc(C#N)cc3)nn2)cc1 | 12.2 µM
CCCCCCCCCCc1cn(Cc2ccc(C#N)cc2)nn1 | 7.88 µM
Cc1ccc(OCc2cn(C(c3ccc(C#N)cc3)c3ccc(C#N)cc3)nn2)cc1 | 11 µM

Compound | IC50
N#Cc1ccc(Cn2nccn2)cc1 | 12.2 µM
CCCc1cn(C(c2ccc(C#N)cc2)c2ccc(C#N)cc2)nn1 | 4.7 µM
CCCCCCCCCCc1cn(C(c2ccccc2)c2ccccc2)nn1 | 13.5 µM
c1ccc(C(c2ccccc2)n2ccnn2)cc1 | 4.58 µM
c1ccc(C(c2ccccc2)n2cc(C3CCCCC3)nn2)cc1 | 13.7 µM
c1ccc(C(c2ccccc2)n2cncn2)cc1 | 1.1 µM
CCCCCCCc1cn(C(c2ccccc2)c2ccccc2)nn1 | 19.4 µM
CCCc1cn(C(c2ccccc2)c2ccccc2)nn1 | 11 µM
N#Cc1ccc(Cn2ccnn2)cc1 | 0.1 µM
CCCCCCc1cn(C(c2ccccc2)c2ccccc2)nn1 | 14.8 µM
c1ccc(Cn2nccn2)cc1 | 16.3 µM
N#Cc1ccc(C(c2ccc(C#N)cc2)n2cc(C3CCCCC3)nn2)cc1 | 19.3 µM
CCCCCCc1cn(Cc2ccc(C#N)cc2)nn1 | 5.26 µM
CCCCCCCc1cn(Cc2ccc(C#N)cc2)nn1 | 3.07 µM
CCCCCCCc1cn(C(c2ccc(C#N)cc2)c2ccc(C#N)cc2)nn1 | 10.6 µM

The next lines start with the values.

IC50 | Compound
11.9 µM | c1ccc(Cn2ccnn2)cc1
17.3 µM | COc1ccc(OCc2cn(Cc3ccccc3)nn2)cc1
13.3 µM | N#Cc1ccc(C(c2ccc(C#N)cc2)n2cc(COc3ccc(-c4ccccc4)cc3)nn2)cc1
13.4 µM | Clc1ccc(OCc2cn(C(c3ccccc3)c3ccccc3)nn2)cc1
4.17 µM | Cc1ccc(OCc2cn(Cc3ccc(C#N)cc3)nn2)cc1
11 µM | N#Cc1ccc(C(c2ccc(C#N)cc2)n2cc(COc3ccccc3)nn2)cc1
9.16 µM | N#Cc1ccc(Cn2cc(COc3ccc(C#N)cc3)nn2)cc1
9.53 µM | CCCCCCCc1cn(Cc2ccccc2)nn1
10.7 µM | c1ccc(Cn2cc(COc3ccc(-c4ccccc4)cc3)nn2)cc1
7.73 µM | N#Cc1ccc(C(c2ccc(C#N)cc2)n2cc(COc3ccc([N+](=O)[O-])cc3)nn2)cc1
6.4 µM | CCCCCCCCCCc1cn(Cc2ccccc2)nn1
5.62 µM | N#Cc1ccc(Cn2cc(COc3ccc([N+](=O)[O-])cc3)nn2)cc1
11.6 µM | N#Cc1ccc(Cn2cc(COc3ccc(-c4ccccc4)cc3)nn2)cc1
3.38 µM | N#Cc1ccc(Cn2cc(-c3ccccc3)nn2)cc1
11.6 µM | O=[N+]([O-])c1ccc(OCc2cn(C(c3ccccc3)c3ccccc3)nn2)cc1
2.27 µM | Cc1ccc(OCc2cn(Cc3ccccc3)nn2)cc1

IC50 | Compound
31.3 µM | c1ccc(OCc2cn(C(c3ccccc3)c3ccccc3)nn2)cc1
12.6 µM | CCCc1cn(Cc2ccccc2)nn1
26.8 µM | Cc1ccc(OCc2cn(C(c3ccccc3)c3ccccc3)nn2)cc1
4.37 µM | CCCc1cn(Cc2ccc(C#N)cc2)nn1
10.6 µM | c1ccc(Cn2cc(COc3ccccc3)nn2)cc1
3.91 µM | N#Cc1ccc(Cn2cc(COc3ccc(Cl)cc3)nn2)cc1
9.77 µM | c1ccc(Cn2cc(-c3ccccc3)nn2)cc1
16.4 µM | N#Cc1ccc(OCc2cn(C(c3ccccc3)c3ccccc3)nn2)cc1
1.36 µM | N#Cc1ccc(OCc2cn(Cc3ccccc3)nn2)cc1
15.5 µM | c1ccc(-c2ccc(OCc3cn(C(c4ccccc4)c4ccccc4)nn3)cc2)cc1
6.09 µM | N#Cc1ccc(Cn2cc(COc3ccccc3)nn2)cc1
2.34 µM | COc1ccc(OCc2cn(Cc3ccc(C#N)cc3)nn2)cc1
2.78 µM | O=[N+]([O-])c1ccc(OCc2cn(Cc3ccccc3)nn2)cc1
15.2 µM | COc1ccc(OCc2cn(C(c3ccccc3)c3ccccc3)nn2)cc1
7.47 µM | CCCCCCc1cn(Cc2ccccc2)nn1
5.04 µM | Clc1ccc(OCc2cn(Cc3ccccc3)nn2)cc1

tested on: NCI-H295R; assay: Antiproliferative activity against human NCI-H295R cells assessed as [3H]thymidine incorporation at 10 nM after 24 hrs by scintillation counting; type: functional; settings: read-out: GI

Compound | inhibition of growth at 0.01 µM
N#Cc1ccc(C(c2ccc(C#N)cc2)n2cncn2)cc1 [LETROZOLE] | 10%

tested on: NCI-H295R; assay: Antiproliferative activity against human NCI-H295R cells at 10 nM after 24 hrs by Cell titer blue assay; type: functional; settings: not given

Compound | growth inhibition (GI)
N#Cc1ccc(OCc2cn(Cc3ccccc3)nn2)cc1 | inactive

same assay, conditions: read-out: GI

Compound | inhibition of growth at 0.01 µM
N#Cc1ccc(OCc2cn(C(c3ccc(C#N)cc3)c3ccc(C#N)cc3)nn2)cc1 | 76%

tested on: NCI-H295R; assay: Antiproliferative activity against human NCI-H295R cells at 10 nM after 72 hrs by Cell titer blue assay; type: functional; settings: not given

Compound | growth inhibition (GI)
N#Cc1ccc(OCc2cn(Cc3ccccc3)nn2)cc1 | inactive

same assay, conditions: read-out: GI

Compound | inhibition of growth at 0.01 µM
N#Cc1ccc(OCc2cn(C(c3ccc(C#N)cc3)c3ccc(C#N)cc3)nn2)cc1 | 99%

tested on: NCI-H295R; assay: Antiproliferative activity against human NCI-H295R cells assessed as cell viability at 10 nM after 24 to 72 hrs by Cell titer blue assay; type: functional; settings: read-out: GI

Compound | inhibition of growth at 0.01 µM
N#Cc1ccc(C(c2ccc(C#N)cc2)n2ccnc2)cc1 | 40%

target: T1, Aromatase; assay: Ratio of letrozole IC50 to compound IC50 for aromatase; settings: not given

Compound | Ratio IC50
N#Cc1ccc(Cn2ccnn2)cc1 | 12.5
